Measurements as given in US20260028354A1, “TETRAHYDRONAPHTHALENE DERIVATIVES AS ESTROGEN RECEPTOR DEGRADERS” (REGENT OF THE UNIVERSITY OF MICHIGAN, priority 2022, published 2026).
pIC50: −log10 of the molar value. Read-outs that look alike come from different tables or passages of the source.

Columns and labels:
[1] = target: CRBN/DDB1 (Homo sapiens (Human), UniProt Q96SW2); format: binding; conditions: His tagged CRBN+DDB1, Cy5-labeled Thalidomide probe, one hour; read-out: CRBN HTRF IC50
Experimental: The binding potency was determined using HTRF assay technology (Perkin Elmer). Compounds were serially diluted in DMSO and […] volume was transferred to white 384-well plate.

[2] = target: ER in MCF-7 cells (Homo sapiens (Human), UniProt P03372); assay: In-cell Western (ICW) ER degradation assay in MCF-7 cells; format: cell-based; conditions: for DC50: MCF-7, ER degradation, read-out: MCF7 DC50
Chain of ER in MCF-7 cells (P03372 whole entry): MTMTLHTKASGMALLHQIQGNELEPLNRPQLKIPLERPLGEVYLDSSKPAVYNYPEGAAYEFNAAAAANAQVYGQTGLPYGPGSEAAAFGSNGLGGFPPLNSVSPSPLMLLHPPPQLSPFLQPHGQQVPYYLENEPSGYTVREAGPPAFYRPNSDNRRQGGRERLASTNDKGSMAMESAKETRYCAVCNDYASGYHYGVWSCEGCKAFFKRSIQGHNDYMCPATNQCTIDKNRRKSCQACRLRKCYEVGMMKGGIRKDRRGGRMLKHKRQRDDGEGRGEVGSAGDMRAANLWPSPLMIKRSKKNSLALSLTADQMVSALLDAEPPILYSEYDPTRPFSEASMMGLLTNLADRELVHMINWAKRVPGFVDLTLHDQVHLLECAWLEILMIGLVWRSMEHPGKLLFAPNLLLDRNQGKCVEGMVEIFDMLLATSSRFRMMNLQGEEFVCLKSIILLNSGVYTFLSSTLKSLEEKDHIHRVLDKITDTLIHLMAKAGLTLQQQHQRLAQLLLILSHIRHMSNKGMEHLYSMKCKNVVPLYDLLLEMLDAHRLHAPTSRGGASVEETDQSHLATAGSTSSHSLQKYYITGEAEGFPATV

[3] = MCF7, MCF-7, maximal ER degradation, 16 hrs treatment, read-out: MCF7 Dmax
[4] = MCF7, read-out: MCF7 Dmax, MCF-7, maximal ER degradation, 16 hrs treatment

Chain of CRBN/DDB1 (Q96SW2 whole entry, species assumed): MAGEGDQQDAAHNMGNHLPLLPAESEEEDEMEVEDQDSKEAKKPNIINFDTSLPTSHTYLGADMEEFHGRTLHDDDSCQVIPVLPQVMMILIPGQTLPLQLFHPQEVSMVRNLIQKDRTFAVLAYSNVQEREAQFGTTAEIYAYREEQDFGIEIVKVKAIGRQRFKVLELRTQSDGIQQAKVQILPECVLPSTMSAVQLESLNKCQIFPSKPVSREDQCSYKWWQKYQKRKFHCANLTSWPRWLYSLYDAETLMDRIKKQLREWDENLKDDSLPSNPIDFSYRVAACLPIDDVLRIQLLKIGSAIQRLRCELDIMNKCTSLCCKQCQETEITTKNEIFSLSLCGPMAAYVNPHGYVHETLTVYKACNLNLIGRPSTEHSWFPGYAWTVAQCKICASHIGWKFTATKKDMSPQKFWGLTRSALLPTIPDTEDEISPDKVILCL
Chain of CRBN/DDB1 (Q16531 whole entry partner, species assumed): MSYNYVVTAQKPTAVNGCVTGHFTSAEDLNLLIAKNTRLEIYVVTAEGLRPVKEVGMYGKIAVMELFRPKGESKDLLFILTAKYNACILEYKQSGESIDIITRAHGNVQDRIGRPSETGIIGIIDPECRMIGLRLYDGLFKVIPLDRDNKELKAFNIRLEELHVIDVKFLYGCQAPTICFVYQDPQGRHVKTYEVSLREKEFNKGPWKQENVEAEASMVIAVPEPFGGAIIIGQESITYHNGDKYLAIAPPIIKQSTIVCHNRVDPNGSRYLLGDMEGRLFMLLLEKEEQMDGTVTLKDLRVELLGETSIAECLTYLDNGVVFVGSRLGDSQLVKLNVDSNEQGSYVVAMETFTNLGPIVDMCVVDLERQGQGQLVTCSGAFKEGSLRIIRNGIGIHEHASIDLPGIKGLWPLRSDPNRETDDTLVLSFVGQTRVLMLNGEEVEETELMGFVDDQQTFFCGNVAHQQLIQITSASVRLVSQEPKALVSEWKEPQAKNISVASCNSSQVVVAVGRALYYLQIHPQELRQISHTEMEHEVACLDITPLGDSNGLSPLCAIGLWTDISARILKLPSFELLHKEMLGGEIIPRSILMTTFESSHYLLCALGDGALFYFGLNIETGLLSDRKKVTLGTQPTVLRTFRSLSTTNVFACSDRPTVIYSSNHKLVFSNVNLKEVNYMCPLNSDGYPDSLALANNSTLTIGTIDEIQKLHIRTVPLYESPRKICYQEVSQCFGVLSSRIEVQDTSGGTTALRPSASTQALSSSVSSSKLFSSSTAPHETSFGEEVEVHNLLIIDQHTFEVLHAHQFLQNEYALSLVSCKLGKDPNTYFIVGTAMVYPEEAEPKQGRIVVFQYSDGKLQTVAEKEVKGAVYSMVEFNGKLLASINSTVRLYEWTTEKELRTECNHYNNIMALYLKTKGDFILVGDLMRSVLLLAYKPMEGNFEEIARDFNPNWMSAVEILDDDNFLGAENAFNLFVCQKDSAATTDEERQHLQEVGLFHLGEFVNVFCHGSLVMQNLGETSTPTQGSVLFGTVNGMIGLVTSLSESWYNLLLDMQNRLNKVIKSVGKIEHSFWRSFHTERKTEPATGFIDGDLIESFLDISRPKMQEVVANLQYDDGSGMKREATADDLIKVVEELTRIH

| SMILES | pIC50 [1] | Dmax [2, 3] | DC50 ([2]; 16 hrs treatment) | Dmax [2, 4] |
| --- | --- | --- | --- | --- |
| O=C1CC[C@H](N2Cc3cc4c(cc3C2=O)OC[C@@H]2CN(CC3CCC5(CC3)CN(c3ncc([C@@H]6c7ccc(O)cc7CC[C@@H]6c6ccccc6)cn3)C5)CCN42)C(=O)N1 (single isomer, unassigned) [Compound A158] | 5.30 to 6.30 | 50 to 75% | < 1 nM | – |
| O=C1CC[C@H](N2Cc3c(ccc4c3OC[C@H]3CN(CC5CCC6(CC5)CN(c5ccc([C@H]7c8ccc(O)cc8CC[C@H]7c7ccccc7)cc5F)C6)CCN43)C2=O)C(=O)N1 (single isomer, unassigned) [Compound A159] | 6.30 to 7.30 | 25 to 50% | 10 to 100 nM | – |
| COc1cc(N2CC3(CCC(CN4CCN5c6ccc7c(c6OC[C@H]5C4)CN([C@H]4CCC(=O)NC4=O)C7=O)CC3)C2)c(F)cc1[C@@H]1c2ccc(O)cc2CC[C@@H]1c1ccccc1 (single isomer, unassigned) [Compound A163] | 6.30 to 7.30 | > 75% | 1 to 10 nM | – |
| COc1cc(N2CC3(CCC(CN4CCN5c6cc7c(cc6OC[C@@H]5C4)C(=O)N([C@H]4CCC(=O)NC4=O)C7)CC3)C2)c(F)cc1[C@@H]1c2ccc(O)cc2CC[C@@H]1c1ccccc1 (single isomer, unassigned) [Compound A164] | 5.30 to 6.30 | > 75% | 1 to 10 nM | – |
| O=C1CCC(NC(=O)c2ccc(C3CCN(CC4CCN(c5ccc([C@@H]6c7ccc(O)cc7CC[C@@H]6c6ccccc6)cc5)CC4)CC3)cn2)C(=O)N1 (stereo partly drawn) [Compound A3, N-(2,6-dioxopiperidin-3-yl)-5-(1-((1-(4-((1R,2S)-6-hydroxy-2-phenyl-1,2,3,4-tetrahydro-naphthalen-1-yl)phenyl)piper-idin-4-yl)methyl)piperidin-4-yl)picolinamide] | < 5.30 | 25 to 50% | < 1 nM | – |
| O=C1CC[C@H](N2Cc3c(ccc4c3OCC43CCN(CC4CCN(c5ccc([C@@H]6c7ccc(O)cc7CC[C@@H]6c6ccccc6)cc5)CC4)CC3)C2=O)C(=O)N1 [Compound A70, (S)-3-(1′-((1-(4-((1R,2S)-6-hydroxy-2-phenyl-1,2,3,4-tetrahydronaphthalen-1-yl)-phenyl)piperidin-4-yl)methyl)-6-oxo-6,8-dihydro-2H,7H-spiro[furo[2,3-e]isoindole-3,4′-piperidin]-7-yl)piperidine-2,6-dione] | > 7.30 | – | < 1 nM | 50 to 75% |
| O=C1CC[C@H](N2Cc3c(ccc4c3OCC43CCN(C[C@H]4COC5(C4)CN(c4ccc([C@@H]6c7ccc(O)cc7CC[C@@H]6c6ccccc6)cc4)C5)CC3)C2=O)C(=O)N1 [Compound A74, (S)-3-(1′-(((S)-2-(4-((1R,2S)-6-hydroxy-2-phenyl-1,2,3,4-tetrahydronaphthalen-1-yl)phenyl)-5-oxa-2-azaspiro[3,4]octan-7-yl)methyl)-6-oxo-6,8-dihydro-2H,7H-spiro[furo[2,3-e]isoindole-3,4′-piperidin]-7-yl)piperidine-2,6-dione] | > 7.30 | – | < 1 nM | 50 to 75% |
| O=C1CC[C@H](N2Cc3c(ccc4c3OCC43CCN(C[C@@H]4COC5(C4)CN(c4ccc([C@@H]6c7ccc(O)cc7CC[C@@H]6c6ccccc6)cc4)C5)CC3)C2=O)C(=O)N1 [Compound A75, (S)-3-(1′-(((R)-2-(4-((1R,2S)-6-hydroxy-2-phenyl-1,2,3,4-tetrahydronaphthalen-1-yl)phenyl)-5-oxa-2-azaspiro[3,4]octan-7-yl)methyl)-6-oxo-6,8-dihydro-2H,7H-spiro[furo[2,3-e]isoindole-3,4′-piperidin]-7-yl)piperidine-2,6-dione] | > 7.30 | – | < 1 nM | 50 to 75% |
| O=C1CC[C@H](N2Cc3c(ccc4c3OC[C@H]3CN(CCCOC5CN(c6ccc([C@@H]7c8ccc(O)cc8CC[C@@H]7c7ccccc7)cc6)C5)CCN43)C2=O)C(=O)N1 [Compound A78, (S)-3-((R)-7-(3-((1-(4-((1R,2S)-6-hydroxy-2-phenyl-1,2,3,4-tetrahydronaphthalen-1-yl)-phenyl)azetidin-3-yl)oxy)prop-yl)-1-oxo-1,3,5,5a,6,7,8,9-octa-hydro-2H-pyrazino[1′,2′:4,5] [1,4]oxazino[2,3-e]isoindol-2-yl)piperidine-2,6-dione] | > 7.30 | 50 to 75% | < 1 nM | – |
| O=C1CC[C@H](N2Cc3c(ccc4c3OC[C@H]3CN(C5CN(CCOc6ccc([C@@H]7c8ccc(O)cc8CC[C@@H]7c7ccccc7)cc6)C5)CCN43)C2=O)C(=O)N1 [Compound A79, (S)-3-((R)-7-(1-(2-(4-((1R,2S)-6-hydroxy-2-phenyl-1,2,3,4-tetrahydronaphthalen-1-yl)-phenoxy)ethyl)azetidin-3-yl)-1-oxo-1,3,5,5a,6,7,8,9-octa-hydro-2H-pyrazino[1′,2′:4,5] [1,4]oxazino[2,3-e]isoindol-2-yl)piperidine-2,6-dione] | > 7.30 | 50 to 75% | < 1 nM | – |
| O=C1CC[C@H](N2Cc3c(ccc4c3OCC43CCN(C4CN(CCOc5ccc([C@@H]6c7ccc(O)cc7CC[C@@H]6c6ccccc6)cc5)C4)CC3)C2=O)C(=O)N1 [Compound A80, (S)-3-(1′-(1-(2-(4-((1R,2S)-6-hydroxy-2-phenyl-1,2,3,4-tetrahydronaphthalen-1-yl)-phenoxy)ethyl)azetidin-3-yl)-6-oxo-6,8-dihydro-2H,7H-spiro[furo[2,3-c]isoindolc-3,4′-piperidin]-7-yl)piperidine-2,6-dione] | > 7.30 | – | < 1 nM | 50 to 75% |
| O=C1CC[C@H](N2Cc3c(ccc4c3OCC43CCN(CC4CC5COCC(C4)N5c4ccc([C@@H]5c6ccc(O)cc6CC[C@@H]5c5ccccc5)cc4)CC3)C2=O)C(=O)N1 (stereo partly drawn) [Compound A81, (3S)-3-(1′-((9-(4-((1R,2S)-6-hydroxy-2-phenyl-1,2,3,4-tetra-hydronaphthalen-1-yl)phenyl)-3-oxa-9-azabicyclo[3.3.1]nonan-7-yl)methyl)-6-oxo-6,8-dihydro-2H,7H-spiro[furo[2,3-e]isoindole-3,4′-piperidin]-7-yl)piperidine-2,6-dione] | > 7.30 | – | < 1 nM | 25 to 50% |
| COc1cc([C@H]2c3ccc(O)cc3CC[C@H]2c2ccccc2)c(F)cc1N1CCC2(CC1)CC(CN1CCN3c4ccc5c(c4OC[C@H]3C1)CN([C@H]1CCC(=O)NC1=O)C5=O)C2 [Compound A117, (S)-3-((R)-7-((7-(5-fluoro-4-((1R,2R)-6-hydroxy-2-phenyl-1,2,3,4-tetrahydronaphthalen-1-yl)-2-methoxyphenyl)-7-aza-spiro[3.5]nonan-2-yl)methyl)-1-oxo-1,3,5,5a,6,7,8,9-octa-hydro-2H-pyrazino[1′,2′:4,5] [1,4]oxazino[2,3-e]isoindol-2-yl)piperidine-2,6-dione] | > 7.30 | 25 to 50% | 10 to 100 nM | – |
| COc1cc(N2CCC(CN3CCC(c4ccc(N[C@H]5CCC(=O)NC5=O)c(F)c4)CC3)CC2)c(F)cc1[C@@H]1c2ccc(O)cc2CC[C@@H]1c1ccccc1 [Compound A118, (S)-3-((2-fluoro-4-(1-((1-(2-fluoro-4-((1S,2S)-6-hydroxy-2-phenyl-1,2,3,4-tetrahydronaph-thalen-1-yl)-5-methoxyphenyl)-piperidin-4-yl)methyl)piper-idin-4-yl)phenyl)amino)piper-idine-2,6-dione] | 5.30 to 6.30 | 25 to 50% | < 1 nM | – |
